Holding throughout (type): cell-based, human
One assay deals with KDR+ CXCR4+ mesoderm. The assay can be described thus: Specification of definitive hemogenic endothelium (HE) and hematopoietic potential from isolated day 3 WNTd KDR+ CXCR4+ mesoderm. To be noted: for hematopoietic potential of the CD34+ HE specified: retinol (5 μM) added on day 3 to isolated KDR+ CXCR4+ mesoderm. The method, then: The hESC lines H1 and H9, and human iPSC1 were maintained on irradiated mouse embryonic fibroblasts in hESC media as described previously (Sturgeon, C. M., et al. Nat Biotechnol 32, 554-561, (2014); Thomson, J. A. et al. Science 282, 1145-1147 (1998); Dege, C. et al., J Vis Exp, (2017)). For differentiation, hPSC were cultured on Matrigel-coated plasticware (BD Biosciences, Bedford, MA) for 24 hours, followed by embryoid body (EB) generation, as described previously (Kennedy, M. et al. Cell Rep 2, 1722-1735, (2012); Dege, C. et al. J Vis Exp, (2017); Ditadi, A. et al. Methods 101, 65-72, (2016)). Briefly, hPSCs were dissociated with brief trypsin-EDTA (0.05%) treatment, followed by scraping. Embryoid body (EB) aggregates were resuspended in SFD media34 supplemented with L-glutamine (2 mM), ascorbic acid (1 mM), monothioglycerol (MTG, 4×10^−4 M; Sigma), transferrin (150 μg/mL), and BMP-4 (10 ng/mL). 24 hours later, bFGF (5 ng/mL) was added. On the second day of differentiation, ACTIVIN A, SB-431542 (6 μM), CHIR99021 (3 μM), and/or IWP2 (3 μM) were added. On the third day, EBs were changed to StemPro-34 media supplemented as above, with bFGF (5 ng/mL) and VEGF (15 ng/mL) and treated with either 10 μM of the pan-ALDH inhibitor DEAB (4-Diethylaminobenzaldehyde, Sigma #D86256; “RA-independent”) or 5 μM retinol (ROH, Sigma #R7632; “RA-dependent”). On day 6, IL-6 (10 ng/mL), IGF-1 (25 ng/mL), IL-11 (5 ng/mL), SCF (50 ng/mL), EPO (2 U/mL final) with DEAB or ROH were added. HE was FACS-isolated for terminal assays on day 8 (DEAB) or day 10 (ROH). All differentiation cultures were maintained at 37° C. All embryoid bodies and mesodermal aggregates were cultured in a 5% CO2/5% 02/90% N2 environment. All recombinant factors are human and were purchased from Biotechne. Analysis of hematopoietic colony potential via Methocult (Stem Cell Technologies) was performed as described previously (Ditadi, A. et al. Nat Cell Biol 17, 580-591, (2015); Kennedy, M. et al. Cell Rep 2, 1722-1735, (2012)).
For isolation of mesodermal populations, day 3 of differentiation WNTd KDR+ CD235a^negCXCR4+/neg and WNTi KDR+ CD235a+ cells were FACS-isolated and reaggregated at 250,000 cells/mL in day 3 media, as above. Cultures were plated in 250 μL volumes in a 24 well low-adherence culture plate, and grown overnight in a 37° C. incubator, with a 5% CO2/5% 02/90% N2 environment. As specified, RA was manipulated with either 5 μM ROH or ATRA (Sigma #R2625), or 10 μM DEAB. On day 4, an additional 1 mL of RA-supplemented day 3 media was added to reaggregates. On day 6 of differentiation, CD34+ and CD43+ cells from WNTi cultures were FACS-isolated for terminal assays. WNTd cultures were fed as normally, but without additional RA manipulation. CD34+ cells were sorted from all WNTd populations on day 8 of differentiation.
CD34+CD43^neg hemogenic endothelium was isolated by FACS and allowed to undergo the endothelial-to-hematopoietic transition as described previously (Ditadi, A. et al., Nat Cell Biol 17, 580-591, (2015); Ditadi, A. et al., Methods 101, 65-72, (2016)). Briefly, cells (CD34+CD43^neg or CD34+CD43^negCD73^negCXCR4neg cells) were aggregated overnight at a density of 2×10^5 cells/mL in StemPro-34 media supplemented with L-glutamine (2 mM), ascorbic acid (1 mM), monothioglycerol (MTG, 4×10^−4 M; Sigma-Aldrich), holo-transferrin (150 μg/mL), TPO (30 ng/mL), IL-3 (30 ng/mL), SCF (100 ng/mL), IL-6 (10 ng/mL), IL-11 (5 ng/mL), IGF-1 (25 ng/mL), EPO (2 U/mL), VEGF (5 ng/mL), bFGF (5 ng/mL), BMP4 (10 ng/mL), FLT3L (10 ng/mL), and SHH (20 ng/mL). Aggregates were spotted onto Matrigel-coated plasticware and were cultured for additional 3 or 9 days for WNTi and WNTd cultures, respectively. Cultures were maintained in a 37° C. incubator, in a 5% CO2/5% 02/90% N2 environment. Hemato-endothelial cultures were subsequently harvested by trypsinization, and assessed for hematopoietic potential by Methocult in a 37° C. incubator, in a 5% CO2/air environment. […]

For a further assay, the system named is HOXA genes. The assay can be described thus: HOXA gene expression in CXCR4+ mesoderm-derived CD34+ cells. The following applies: after ROH treatment of CXCR4+ mesoderm on day 3. The method, then:
Total RNA was prepared for whole-transcriptome sequencing using the Clontech SMARTer kit and was sequenced using an Illumina HiSeq 2500 with 1×50 single reads. Reads were aligned to hg19 using STAR and gene counts were obtained using Subread. TMM normalization and RPKM counts were calculated using EdgeR. Gene Set Enrichment Analysis (GSEA, version 4.0.1) and the Database for Annotation, Visualization, and Integrated discovery (DAVID, version 6.8) were used for differential expression analysis. Morpheus (software.broadinstitute.org/morpheus) was used to create heatmaps and perform hierarchical clustering (one minus the Pearson correlation with average linkage). Bulk RNA-seq comparison to scRNA-seq was performed using the SingleR package (version 1.0.1)(Aran, D. et al., Nat Immunol 20, 163-172, (2019)) implemented in R (version 3.5.1). qRT-PCR was performed as previously described (Sturgeon, C. M., et al., Nat Biotechnol 32, 554-561, (2014)). Briefly, total RNA was isolated with the RNAqueous RNA Isolation Kit (Ambion), followed by reverse transcription using random hexamers and Oligo (dT) with Superscript III Reverse Transcriptase (Invitrogen). Real-time quantitative PCR was performed on a StepOnePlus thermocycle (Applied Biosystems), using Power Green SYBR mix (Invitrogen). […] Gene expression was evaluated as DeltaCt relative to control (ACTB). […]

In assay [1] the test system is WNTd differentiation cultures. As to the kind of experiment: Hematopoietic potential of HE from bulk WNTd differentiation cultures treated on day 3 (erythro-myeloid CFC, BFU-E globin). The following applies: ROH on day 3 (RAd HE) compared with DEAB (RAi HE). The procedure:
(§1) The hESC lines H1 and H9, and human iPSC1 were maintained on irradiated mouse embryonic fibroblasts in hESC media as described previously (Sturgeon, C. M., et al. Nat Biotechnol 32, 554-561, (2014); Thomson, J. A. et al. Science 282, 1145-1147 (1998); Dege, C. et al., J Vis Exp, (2017)). For differentiation, hPSC were cultured on Matrigel-coated plasticware (BD Biosciences, Bedford, MA) for 24 hours, followed by embryoid body (EB) generation, as described previously (Kennedy, M. et al. Cell Rep 2, 1722-1735, (2012); Dege, C. et al. J Vis Exp, (2017); Ditadi, A. et al. Methods 101, 65-72, (2016)). Briefly, hPSCs were dissociated with brief trypsin-EDTA (0.05%) treatment, followed by scraping. […]
CD34+CD43^neg hemogenic endothelium was isolated by FACS and allowed to undergo the endothelial-to-hematopoietic transition as described previously (Ditadi, A. et al., Nat Cell Biol 17, 580-591, (2015); Ditadi, A. et al., Methods 101, 65-72, (2016)). […] Hemato-endothelial cultures were subsequently harvested by trypsinization, and assessed for hematopoietic potential by Methocult in a 37° C. incubator, in a 5% CO2/air environment. The experiments were performed in triplicate and the mean (±standard deviation) of the […] calculated for each data set is reported. […]

A further assay deals with WNTi CD235a+ mesoderm. As to the kind of experiment: Extra-embryonic-like HE specification from isolated day 3 WNTi CD235a+ mesoderm. The method, then:
as §1, with “scraping. Embryoid body (EB) aggregates were resuspended in SFD media34 supplemented with L-glutamine (2 mM), ascorbic acid (1 mM), monothioglycerol (MTG, 4×10^−4 M; Sigma), transferrin (150 μg/mL), and BMP-4 (10 ng/mL). 24 hours later, bFGF (5 ng/mL) was added.” for “scraping.”
(§2) CD34+CD43^neg hemogenic endothelium was isolated by FACS and allowed to undergo the endothelial-to-hematopoietic transition as described previously (Ditadi, A. et al., Nat Cell Biol 17, 580-591, (2015); Ditadi, A. et al., Methods 101, 65-72, (2016)). […] Hemato-endothelial cultures were subsequently harvested by trypsinization, and assessed for hematopoietic potential by Methocult in a 37° C. incubator, in a 5% CO2/air environment. […]

Assay [2] concerns WNTd KDR+ CXCR4neg mesoderm. The assay can be described thus: Definitive hematopoietic development / HE specification from isolated day 3 WNTd KDR+ CXCR4neg mesoderm. The procedure:
The hESC lines H1 and H9, and human iPSC1 were maintained on irradiated mouse embryonic fibroblasts in hESC media as described previously (Sturgeon, C. M., et al. Nat Biotechnol 32, 554-561, (2014); Thomson, J. A. et al. Science 282, 1145-1147 (1998); Dege, C. et al., J Vis Exp, (2017)). For differentiation, hPSC were cultured on Matrigel-coated plasticware (BD Biosciences, Bedford, MA) for 24 hours, followed by embryoid body (EB) generation, as described previously (Kennedy, M. et al. Cell Rep 2, 1722-1735, (2012); Dege, C. et al. J Vis Exp, (2017); Ditadi, A. et al. Methods 101, 65-72, (2016)). Briefly, hPSCs were dissociated with brief trypsin-EDTA (0.05%) treatment, followed by scraping. Embryoid body (EB) aggregates were resuspended in SFD media34 supplemented with L-glutamine (2 mM), ascorbic acid (1 mM), monothioglycerol (MTG, 4×10^−4 M; Sigma), transferrin (150 μg/mL), and BMP-4 (10 ng/mL). 24 hours later, bFGF (5 ng/mL) was added. On the second day of differentiation, ACTIVIN A, SB-431542 (6 μM), CHIR99021 (3 μM), and/or IWP2 (3 μM) were added. On the third day, EBs were changed to StemPro-34 media supplemented as above, with bFGF (5 ng/mL) and VEGF (15 ng/mL) and treated with either 10 μM of the pan-ALDH inhibitor DEAB (4-Diethylaminobenzaldehyde, Sigma #D86256; “RA-independent”) or 5 μM retinol (ROH, Sigma #R7632; “RA-dependent”). On day 6, IL-6 (10 ng/mL), IGF-1 (25 ng/mL), IL-11 (5 ng/mL), SCF (50 ng/mL), EPO (2 U/mL final) with DEAB or ROH were added. HE was FACS-isolated for terminal assays on day 8 (DEAB) or day 10 (ROH). All differentiation cultures were maintained at 37° C. […]
as §2

SMILES strings stand for the structures. Entries after “also recorded” stand apart in the source; their conditions may differ.

On to `CC1=C(/C=C/C(C)=C/C=C/C(C)=C/CO)C(C)(C)CCC1` [ROH, retinol], for which the “stage at which ROH treatment results in specification of HE” value with KDR+ CXCR4+ mesoderm (ROH treatment on day 3, 4 or 5 of CXCR4+ mesoderm) was “on day 3 of differentiation, but not thereafter, resulted in the specification of HE”. The “hematopoietic potential of the CD34+ HE specified” value in the assay on KDR+ CXCR4+ mesoderm is “harbored definitive erythroid, myeloid, and lymphoid hematopoietic potential”; with KDR+ CXCR4+ mesoderm (listed as retinol), “capable of erythro-myeloid-lymphoid multilineage hematopoiesis”. For the same molecule, the HOXA gene expression result with HOXA genes is “elevated HOXA gene expression”. For the same molecule, the “erythro-myeloid CFC potential of the resulting HE” value in assay [1] is “significantly more erythro-myeloid CFC potential than RAi HE”. In addition, in assay [1], the “fetal (HBG) globin expression of resultant BFU-E” value was “higher expression of fetal (HBG) globin”.

In the case of `CC1=C(/C=C/C(C)=C/C=C/C(C)=C/C(=O)O)C(C)(C)CCC1` [ATRA, all-trans-retinoic acid], the “specification of definitive HE” value in the assay on KDR+ CXCR4+ mesoderm (1 nM ATRA on isolated KDR+ CXCR4+ mesoderm, day 3 of differentiation) is “robust specification of definitive HE”. Moreover, the “specification of HE” value with KDR+ CXCR4+ mesoderm (ATRA concentrations lower than 1 nM and higher than 10 nM, isolated KDR+ CXCR4+ mesoderm) was “failed to specify HE”. For the same molecule, the “ATRA concentration repressive to extra-embryonic-like HE specification” value with WNTi CD235a+ mesoderm was > 1 nM. In assay [2] (1-10 nM ATRA, WNTd KDR+ CXCR4neg mesoderm), the “effect on definitive hematopoietic development” value is on record as “no significant effect”. The “ATRA concentration repressive to HE specification” value in assay [2] (WNTd KDR+ CXCR4neg mesoderm) is recorded as > 100 nM.

On to `CCN(CC)c1ccc(C=O)cc1` [DEAB, 4-Diethylaminobenzaldehyde], for which the “hematopoietic potential of the CD34+ population obtained” value with KDR+ CXCR4+ mesoderm (DEAB (ALDH inhibitor) added to KDR+ CXCR4+ mesoderm culture) was “completely lacked any hematopoietic potential”. In assay [2] (DEAB added to KDR+ CXCR4neg mesoderm differentiation, any stage), the “impact on definitive hematopoietic specification” value is “gives rise to definitive hematopoietic progenitors; also recorded: no negative impact”.

Values taken from patent US20250333701A1, “COMPOSITIONS AND METHODS FOR GENERATING HEMATOPOIETIC STEM CELLS (HSCS)” (Washington University, priority 2019, published 2025).
